Results on eleven molecules are retold here after PubChem BioAssay (NCI).

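Values below derive from 48-hour exposures of cells grown in 96-well plates, with endpoints linearly interpolated between the two concentrations bracketing the appropriate inhibition level. TGI denotes the concentration required for complete inhibition of growth.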

Among the test systems are OVCAR-5 ovarian; RXF 393 renal; IGROV1 ovarian; SK-MEL-5 melanoma; 786-0 renal; SF-295 CNS; SW-620 colon; HOP-92 NSCLC; OVCAR-3 ovarian; UO-31 renal; HCT-15 colon; BT-549 breast; SK-OV-3 ovarian; A549 NSCLC; EKVX NSCLC; HL-60(TB) leukemia; OVCAR-8 ovarian; KM12 colon; K-562 leukemia; HCT-116 colon.
Test in all cases: NCI-60 cell line screen, 48 h

Regarding `CC(C)c1nc2cc(C(F)(F)F)ccc2[nH]c1=O`, the TGI in the assay on OVCAR-5 ovarian, with RXF 393 renal, in the assay with IGROV1 ovarian, in the assay on SK-MEL-5 melanoma, in the assay on 786-0 renal and in the assay on SF-295 CNS was greater than 100 µM in each case. In addition, the TGI in the assay with SW-620 colon, with HOP-92 NSCLC, in the assay with OVCAR-3 ovarian, with UO-31 renal, with HCT-15 colon and with BT-549 breast was greater than 100 µM each time. The TGI with SK-OV-3 ovarian, with A549 NSCLC, in the assay on EKVX NSCLC, in the assay with HL-60(TB) leukemia, with OVCAR-8 ovarian and in the assay with KM12 colon was greater than 100 µM in each case. The TGI with K-562 leukemia and in the assay on HCT-116 colon was greater than 100 µM each time.
On to `O=C(c1ccco1)N(Cc1ccco1)C(=S)Nc1ccccc1`, for which the TGI with OVCAR-5 ovarian was greater than 100 µM; with RXF 393 renal, 31.9 µM; with IGROV1 ovarian it was 42.2 µM; in the assay on SK-MEL-5 melanoma, 35.9 µM; with 786-0 renal, 22.7 µM; in the assay with SF-295 CNS, greater than 84.1 µM. In addition, the TGI is 32.2 µM with SW-620 colon; 30.3 µM in the assay with HOP-92 NSCLC; 59.7 µM with OVCAR-3 ovarian; 32.8 µM in the assay with UO-31 renal; 36.2 µM with HCT-15 colon; 36.3 µM with BT-549 breast. Further, the TGI was greater than 100 µM with SK-OV-3 ovarian; greater than 76.8 µM with A549 NSCLC; greater than 96.5 µM in the assay with EKVX NSCLC; 4.61 µM with HL-60(TB) leukemia; 59.7 µM in the assay with OVCAR-8 ovarian; greater than 100 µM in the assay on KM12 colon. In addition, the values for the TGI in the assay on K-562 leukemia and in the assay with HCT-116 colon were 40.8 µM and 30.7 µM, respectively.
As to `COC(=O)[C@@H]1C=C[C@H](OC2OC(COC(C)=O)C(OC(C)=O)C(OC(C)=O)C2OC(C)=O)n2c(=O)c3ccccc3c(=O)n21` (stereo not given in full), the TGI in the assay on OVCAR-5 ovarian is 29.6 µM; in the assay on RXF 393 renal, 20.1 µM; in the assay with IGROV1 ovarian, 33.3 µM; with SK-MEL-5 melanoma it was 30.2 µM; with 786-0 renal, 58.9 µM; in the assay with SF-295 CNS it was 53.9 µM. Further, the TGI with SW-620 colon is 24.9 µM; with HOP-92 NSCLC, 23.7 µM; in the assay with OVCAR-3 ovarian, 22.2 µM; in the assay with UO-31 renal, 27.5 µM; in the assay with HCT-15 colon, 22.7 µM; in the assay with BT-549 breast it was 18.2 µM. Moreover, the TGI with SK-OV-3 ovarian turned out to be 28.2 µM; in the assay with A549 NSCLC, 47.4 µM; in the assay with EKVX NSCLC, 30.5 µM; in the assay with HL-60(TB) leukemia, 30.2 µM; in the assay on OVCAR-8 ovarian, 49 µM; in the assay on KM12 colon, 27.4 µM. Further, the TGI is 24.5 µM in the assay on K-562 leukemia and 22.8 µM with HCT-116 colon.
For the molecule `COc1cc2c(c(O)c1OC)C(O)C1CCC(=O)N1C2c1cccc2ccccc12` (stereo not given), the TGI in the assay on OVCAR-5 ovarian, in the assay with RXF 393 renal, in the assay with IGROV1 ovarian, with SK-MEL-5 melanoma, in the assay with 786-0 renal and in the assay with SF-295 CNS was greater than 100 µM each time. Besides, the TGI in the assay on SW-620 colon, in the assay on HOP-92 NSCLC, in the assay with OVCAR-3 ovarian, in the assay on UO-31 renal, in the assay on HCT-15 colon and in the assay on BT-549 breast was greater than 100 µM throughout. Also, the TGI with SK-OV-3 ovarian, in the assay with A549 NSCLC, in the assay on EKVX NSCLC, in the assay with HL-60(TB) leukemia, in the assay on OVCAR-8 ovarian and with KM12 colon was greater than 100 µM throughout. In addition, the TGI with K-562 leukemia and in the assay with HCT-116 colon was greater than 100 µM in each case.
As for `CCCN1CC=C(c2cc(C(=O)OCC)[nH]c2-c2cc(C)no2)C1=O`, the TGI with OVCAR-5 ovarian, in the assay with RXF 393 renal, in the assay on IGROV1 ovarian, in the assay on SK-MEL-5 melanoma, in the assay on 786-0 renal and in the assay on SF-295 CNS was greater than 100 µM throughout. Moreover, the TGI with SW-620 colon, in the assay with HOP-92 NSCLC, in the assay with OVCAR-3 ovarian, with UO-31 renal, with HCT-15 colon and in the assay with BT-549 breast was greater than 100 µM in each case. In addition, the TGI in the assay on SK-OV-3 ovarian, with A549 NSCLC, with EKVX NSCLC, in the assay on HL-60(TB) leukemia, with OVCAR-8 ovarian and with KM12 colon was greater than 100 µM throughout. Besides, the TGI in the assay with K-562 leukemia and in the assay with HCT-116 colon was greater than 100 µM throughout.
Take `COc1ccc(/C=C/c2sc3ccccc3[n+]2CCCCI)cc1OC`: the TGI in the assay on OVCAR-5 ovarian, in the assay on RXF 393 renal, in the assay with IGROV1 ovarian, in the assay on SK-MEL-5 melanoma, in the assay on 786-0 renal and in the assay on SF-295 CNS was greater than 10 µM each time. Also, the TGI in the assay with SW-620 colon, with HOP-92 NSCLC, in the assay on OVCAR-3 ovarian, in the assay with UO-31 renal, in the assay with HCT-15 colon and with BT-549 breast was greater than 10 µM throughout. Also, the TGI was greater than 10 µM with SK-OV-3 ovarian; greater than 10 µM in the assay with A549 NSCLC; greater than 10 µM in the assay on EKVX NSCLC; 7.48 µM with HL-60(TB) leukemia; greater than 10 µM with OVCAR-8 ovarian; greater than 10 µM in the assay with KM12 colon. Further, the TGI in the assay with K-562 leukemia and in the assay with HCT-116 colon was greater than 10 µM in each case.
With `S=C1Cc2c(-c3ccc(Cl)cc3)cc(-c3ccccc3)nc2-c2ccccc2N1`, the TGI was 92.9 µM with OVCAR-5 ovarian; 21.9 µM in the assay on RXF 393 renal; 14 µM in the assay with IGROV1 ovarian; greater than 100 µM with SK-MEL-5 melanoma; 21.8 µM in the assay on 786-0 renal; 34.1 µM with SF-295 CNS. Also, the TGI in the assay with SW-620 colon is greater than 100 µM; in the assay on HOP-92 NSCLC it was 26.7 µM; in the assay with OVCAR-3 ovarian, 29.8 µM; with UO-31 renal, 35.8 µM; in the assay on HCT-15 colon it was greater than 100 µM; in the assay with BT-549 breast it was 35 µM. Also, the TGI in the assay on SK-OV-3 ovarian is 25.7 µM; with A549 NSCLC, 25.5 µM; in the assay with EKVX NSCLC, 54.9 µM; in the assay on HL-60(TB) leukemia, greater than 100 µM; in the assay with OVCAR-8 ovarian, 8.04 µM; in the assay with KM12 colon, 50.9 µM. Moreover, the TGI was greater than 100 µM in the assay on K-562 leukemia and 28.8 µM in the assay with HCT-116 colon.
Consider `CC(=O)c1c(SCCN2CCCC2)n(-c2ccccc2)c(=S)n(-c2ccccc2)c1=O`, for which the TGI in the assay on OVCAR-5 ovarian was greater than 100 µM; in the assay on RXF 393 renal, 5.63 µM; in the assay on IGROV1 ovarian it was 19.4 µM; with SK-MEL-5 melanoma, 20.8 µM; in the assay with 786-0 renal, 3.12 µM; in the assay with SF-295 CNS, greater than 100 µM. Further, the TGI in the assay with SW-620 colon was 6.76 µM; with HOP-92 NSCLC, 18.2 µM; with OVCAR-3 ovarian, 7.22 µM; in the assay on UO-31 renal, 2.73 µM; with HCT-15 colon, 27.5 µM; with BT-549 breast, 28.6 µM. The TGI in the assay on SK-OV-3 ovarian is greater than 100 µM; with A549 NSCLC, 15.1 µM; with EKVX NSCLC, 37.3 µM; in the assay on HL-60(TB) leukemia, 6.93 µM; in the assay on OVCAR-8 ovarian, 23.5 µM; in the assay with KM12 colon, greater than 55.7 µM. Also, the TGI in the assay with K-562 leukemia was greater than 26.7 µM; with HCT-116 colon, 18.6 µM.
Regarding `COc1cc(-c2cc(=O)c3c(OC)c(OC)c(OC)cc3o2)c(OC)c(OC)c1OC`, the TGI with OVCAR-5 ovarian, with RXF 393 renal, with IGROV1 ovarian, in the assay with SK-MEL-5 melanoma, with 786-0 renal and in the assay with SF-295 CNS was greater than 75 µM each time. Moreover, the TGI in the assay with SW-620 colon, in the assay with HOP-92 NSCLC, in the assay on OVCAR-3 ovarian, with UO-31 renal, with HCT-15 colon and in the assay with BT-549 breast was greater than 75 µM throughout. The TGI was greater than 75 µM in the assay on SK-OV-3 ovarian; greater than 75 µM in the assay on A549 NSCLC; greater than 75 µM in the assay with EKVX NSCLC; 44 µM with HL-60(TB) leukemia; greater than 75 µM in the assay on OVCAR-8 ovarian; greater than 75 µM in the assay with KM12 colon. For the same molecule, the TGI in the assay on K-562 leukemia and in the assay with HCT-116 colon was greater than 75 µM each time.
In the case of `C=[N+](CNC(=O)CNC(=O)C(Cc1ccc([N+](=O)[O-])cc1)NC(=O)OC(C)(C)C)C(=O)CNC(=O)C(Cc1ccc([N+](=O)[O-])cc1)NC(=O)OC(C)(C)C` (stereo not given), the TGI with OVCAR-5 ovarian, in the assay on RXF 393 renal, in the assay on IGROV1 ovarian, in the assay on SK-MEL-5 melanoma, in the assay on 786-0 renal and with SF-295 CNS was greater than 100 µM throughout. The TGI is greater than 100 µM in the assay with SW-620 colon; greater than 100 µM in the assay on HOP-92 NSCLC; greater than 100 µM in the assay on OVCAR-3 ovarian; greater than 100 µM with UO-31 renal; greater than 100 µM with HCT-15 colon; 85.5 µM with BT-549 breast. Moreover, the TGI in the assay on SK-OV-3 ovarian was greater than 100 µM; in the assay with A549 NSCLC, greater than 100 µM; in the assay with EKVX NSCLC, greater than 100 µM; in the assay on HL-60(TB) leukemia, 46.5 µM; with OVCAR-8 ovarian it was greater than 100 µM; in the assay with KM12 colon, greater than 100 µM. The TGI in the assay on K-562 leukemia and with HCT-116 colon was greater than 100 µM each time.
In the case of `C1=Nc2ccc(cc2)N=Cc2ccc(cc2)OCc2cccc(n2)COc2ccc1cc2`, the TGI with OVCAR-5 ovarian, in the assay on RXF 393 renal, with IGROV1 ovarian, in the assay with SK-MEL-5 melanoma, in the assay with 786-0 renal and in the assay on SF-295 CNS was greater than 100 µM in each case. Also, the TGI in the assay on SW-620 colon, in the assay on HOP-92 NSCLC, in the assay on OVCAR-3 ovarian, in the assay on UO-31 renal, with HCT-15 colon and with BT-549 breast was greater than 100 µM throughout. Besides, the TGI in the assay with SK-OV-3 ovarian, in the assay on A549 NSCLC, in the assay on EKVX NSCLC, with HL-60(TB) leukemia, in the assay on OVCAR-8 ovarian and with KM12 colon was greater than 100 µM in each case. Also, the TGI in the assay with K-562 leukemia and in the assay with HCT-116 colon was greater than 100 µM each time.
